The values that follow come from DBAASP.

Some test systems named below: Escherichia coli BW25113; Escherichia coli UB1005; Listeria monocytogenes.
Holding throughout (assay): ≥ marks a high value that may be exact or a test limit, other limits are often not marked, values filed in µg/mL are converted to µM
The test system of experiment [1] is Acinetobacter baumannii ATCC 19606.
Experiment [2] has as its system Escherichia coli ATCC 25922.
Experiment [3] deals with Escherichia coli BW25113 ΔsbmA.
Experiment [4] relates to Klebsiella pneumoniae ATCC 700603.
Experiment [5] concerns Pseudomonas aeruginosa ATCC 27853.
Experiment [6] relates to Salmonella enterica subsp. enterica serovar Typhimurium ATCC 14028.
The subject of experiment [7] is Staphylococcus aureus ATCC 25923.
For experiment [8], the system named is Bacillus subtilis KCTC 1998.
The test system of experiment [9] is Candida albicans KCTC 7270.
In experiment [10] the test system is Escherichia coli CCARM 1229.
Experiment [11] has as its system Escherichia coli CCARM 1238.
In experiment [12] the test system is Listeria monocytogenes KCTC 3710.
Experiment [13] has as its system Pseudomonas aeruginosa 4007.
Experiment [14] concerns Pseudomonas aeruginosa 4891.
In experiment [15] the test system is Salmonella typhimurium KCTC 1926.
Experiment [16] has as its system Staphylococcus aureus CCARM 3090.
The test system of experiment [17] is Staphylococcus aureus CCARM 3518.
Experiment [18] has as its system Trichosporon beigelii KCTC 7707.
Experiment [19] has as its system Enterococcus faecalis ATCC 29212.
Experiment [20] relates to Pseudomonas aeruginosa K799.
Experiment [21] concerns Salmonella enterica subsp. enterica serovar Typhimurium ATCC 14028s.
Experiment [22] relates to Staphylococcus epidermidis.
In experiment [23] the test system is Candida albicans ATCC 10231.
For experiment [24], the system named is Cryptococcus neoformans ATCC 32045.
For experiment [25], the system named is Escherichia coli ATCC 2592.
Experiment [26] has as its system Pseudomonas aeruginosa ATCC 10145.
Experiment [27] has as its system Staphylococcus aureus ATCC 33591.

Converted amounts (≈) assume the structure as drawn. A value given as a limit tells only on which side of the number the result lay.

As a reminder, the MIC is the smallest concentration in the dilution series that meets the test's criterion for growth inhibition. The low end stands for greater potency, the high end for weaker potency. Consider `CC[C@H](C)[C@H](NC(=O)[C@@H]1CCCN1)C(=O)N[C@@H](CCCN=C(N)N)C(=O)N[C@@H](CCCN=C(N)N)C(=O)N1CCC[C@H]1C(=O)N1CCC[C@H]1C(=O)N[C@H](C(=O)N[C@@H](CCCN=C(N)N)C(=O)N1CCC[C@H]1C(=O)N1CCC[C@H]1C(=O)N[C@@H](Cc1ccccc1)C(=O)N[C@@H](Cc1ccc(O)cc1)C(=O)N1CCC[C@H]1C(=O)N1CCC[C@H]1C(=O)N[C@@H](Cc1ccccc1)C(=O)N[C@@H](CCCN=C(N)N)C(=O)N1CCC[C@H]1C(=O)N1CCC[C@H]1C(=O)N[C@H](C(=O)N[C@@H](CCCN=C(N)N)C(=O)N1CCC[C@H]1C(=O)O)[C@@H](C)CC)[C@@H](C)CC` [PIRRPPIRPPFYPPFRPPIRP], for which the MIC is above 64 µM in [1]; above 64 µM in experiment [2]; at least 64 µM in experiment [3]; at least 64 µM in the experiment with Escherichia coli BW25113; above 64 µM in experiment [4]; above 64 µM in experiment [5]. Moreover, the MIC in experiment [6] and in experiment [7] was above 64 µM each time.
On to `CC[C@H](C)[C@H](NC(=O)[C@@H]1CCCN1C(=O)[C@@H]1CCCN1C(=O)[C@H](CCCN=C(N)N)NC(=O)[C@H](Cc1ccccc1)NC(=O)[C@@H](N)CCCN=C(N)N)C(=O)N[C@@H](CCCN=C(N)N)C(=O)N[C@@H](CCCN=C(N)N)C(=O)N1CCC[C@H]1C(=O)N1CCC[C@H]1C(=O)N[C@H](C(=O)N[C@@H](CCCN=C(N)N)C(=O)N1CCC[C@H]1C(=O)N1CCC[C@H]1C(=O)N[C@@H](Cc1ccccc1)C(=O)O)[C@@H](C)CC` [RFRPPIRRPPIRPPF], for which the MIC in experiment [1] was above 64 µM; in experiment [2], 64 µM (≈ 122 µg/mL); in experiment [3], at least 64 µM; against Escherichia coli BW25113, at least 64 µM; in experiment [4], above 64 µM; in experiment [5], above 64 µM. Further, the MIC in experiment [6] and in [7] was above 64 µM throughout.
For `CC[C@H](C)[C@H](NC(=O)CNC(=O)[C@H](CCC(N)=O)NC(=O)[C@H](Cc1ccccc1)NC(=O)[C@@H](NC(=O)[C@H](CCCCN)NC(=O)[C@H](CCCCN)NC(=O)[C@H](CC(C)C)NC(=O)[C@H](C)NC(=O)[C@H](CC(N)=O)NC(=O)[C@H](CC(C)C)NC(=O)CN)C(C)C)C(=O)N[C@@H](Cc1cnc[nH]1)C(=O)N[C@@H](CCC(=O)O)C(=O)N[C@@H](C)C(=O)N[C@H](C(=O)N[C@@H](CCCCN)C(=O)N[C@@H](CCCCN)C(=O)N[C@H](C(=O)N[C@@H](CC(N)=O)C(=O)N[C@@H](CC(N)=O)C(=O)N[C@@H](Cc1cnc[nH]1)C(=O)N[C@H](C(=O)N[C@@H](CCC(N)=O)C(N)=O)C(C)C)[C@@H](C)CC)[C@@H](C)CC` [GLNALKKVFQGIHEAIKKINNHVQ], the MIC in experiment [8] was 8 µM (≈ 21.6 µg/mL); in [9] it was at least 32 µM; in [2] it was 4 µM (≈ 10.8 µg/mL); in experiment [10], 4 µM (≈ 10.8 µg/mL); in [11] it was 4 µM (≈ 10.8 µg/mL); in experiment [12], 8 µM (≈ 21.6 µg/mL). The MIC in experiment [13] was found to be 2 µM (≈ 5.4 µg/mL); in [14] it was 8 µM (≈ 21.6 µg/mL); in experiment [5], 2 µM (≈ 5.4 µg/mL); in experiment [15] it was 4 µM (≈ 10.8 µg/mL); in experiment [7], 8 µM (≈ 21.6 µg/mL); in experiment [16] it was 8 µM (≈ 21.6 µg/mL). Besides, the MIC in experiment [17] was 8 µM (≈ 21.6 µg/mL); in experiment [18], at least 32 µM.
Turning to `CC[C@H](C)[C@@H]1NC(=O)[C@H](C(C)C)NC(=O)[C@H](C(C)C)NC(=O)[C@H]([C@@H](C)CC)NC(=O)[C@@H]2CCCN2C(=O)[C@@H](NC(=O)[C@H](CCCCN)NC(=O)[C@@H](N)CCCCN)CSSC[C@@H](C(=O)N[C@@H](CCCCN)C(=O)O)NC(=O)[C@H](C(C)C)NC(=O)[C@H](CCCN=C(N)N)NC1=O` [KKCPIVVIRVCK], the minimal inhibitory concentration (MIC) in experiment [19] is above 46.2 µM; in the experiment on Escherichia coli UB1005, 11.5 µM (≈ 16 µg/mL); against Listeria monocytogenes, 11.5 µM (≈ 16 µg/mL); in experiment [20], at least 46.2 µM; in [21], 23.1 µM (≈ 32 µg/mL); in [7] it was above 46.2 µM. Also, the MIC in [22] was at least 46.2 µM.
With `CC(C)C[C@H](NC(=O)[C@H](CCCCN)NC(=O)[C@H](CC(C)C)NC(=O)[C@H](CCCCN)NC(=O)[C@H](CC(C)C)NC(=O)[C@H](CCCCN)NC(=O)[C@H](CC(C)C)NC(=O)[C@H](CCCCN)NC(=O)[C@H](CC(C)C)NC(=O)[C@H](CCCCN)NC(=O)[C@H](CC(C)C)NC(=O)[C@H](CCCCN)NC(=O)[C@H](CC(C)C)NC(=O)[C@H](CCCCN)NC(=O)[C@H](CC(C)C)NC(=O)[C@H](CCCCN)NC(=O)[C@H](CC(C)C)NC(=O)[C@H](CCCCN)NC(=O)[C@H](CC(C)C)NC(=O)[C@H](CCCCN)NC(=O)[C@@H](N)CC(C)C)C(=O)N[C@@H](CCCCN)C(=O)O` [LKLKLKLKLKLKLKLKLKLKLK], the MIC in experiment [23] is 132 µM (≈ 354 µg/mL); in [24], 16.7 µM (≈ 44.5 µg/mL); in experiment [25], at least 46.8 µM; in experiment [26], 23.2 µM (≈ 62 µg/mL); in experiment [27] it was at least 93.5 µM.
In the case of `CC(C)C[C@H](NC(=O)[C@H](CCCCN)NC(=O)[C@H](CCCCN)NC(=O)[C@H](CC(C)C)NC(=O)[C@H](CC(C)C)NC(=O)[C@H](CCCCN)NC(=O)[C@H](CCCCN)NC(=O)[C@H](CC(C)C)NC(=O)[C@H](CC(C)C)NC(=O)[C@H](CCCCN)NC(=O)[C@H](CCCCN)NC(=O)[C@H](CC(C)C)NC(=O)[C@H](CC(C)C)NC(=O)[C@H](CCCCN)NC(=O)[C@H](CCCCN)NC(=O)[C@H](CC(C)C)NC(=O)[C@H](CC(C)C)NC(=O)[C@H](CCCCN)NC(=O)[C@H](CCCCN)NC(=O)[C@H](CC(C)C)NC(=O)[C@H](CC(C)C)NC(=O)[C@H](CCCCN)NC(=O)[C@H](CCCCN)NC(=O)[C@@H](N)CC(C)C)C(=O)O` [LKKLLKKLLKKLLKKLLKKLLKKL], the MIC in experiment [23] was 121 µM (≈ 354 µg/mL); in [24] it was at least 42.9 µM; in experiment [25] it was 30.2 µM (≈ 88 µg/mL); in experiment [26], 22.3 µM (≈ 65 µg/mL); in experiment [27], at least 85.8 µM.
As to `CC[C@H](C)[C@H](NC(=O)CNC(=O)[C@H](CCC(N)=O)NC(=O)[C@H](Cc1c[nH]c2ccccc12)NC(=O)[C@@H](NC(=O)[C@H](CCCCN)NC(=O)[C@H](CCCCN)NC(=O)[C@H](CC(C)C)NC(=O)[C@H](C)NC(=O)[C@H](CC(N)=O)NC(=O)[C@H](CC(C)C)NC(=O)[C@@H](N)Cc1c[nH]c2ccccc12)C(C)C)C(=O)N[C@@H](Cc1cnc[nH]1)C(=O)N[C@@H](CCC(=O)O)C(=O)N[C@@H](C)C(=O)N[C@H](C(=O)N[C@@H](CCCCN)C(=O)N[C@@H](CC(C)C)C(=O)N[C@H](C(=O)N[C@@H](Cc1c[nH]c2ccccc12)C(=O)N[C@@H](CC(N)=O)C(=O)N[C@@H](Cc1c[nH]c2ccccc12)C(=O)N[C@H](C(=O)N[C@@H](CCC(N)=O)C(N)=O)C(C)C)[C@@H](C)CC)[C@@H](C)CC` [WLNALKKVWQGIHEAIKLIWNWVQ], the MIC in [8] is at least 32 µM; in experiment [9], at least 32 µM; in experiment [2] it was 16 µM (≈ 47.6 µg/mL); in [10] it was at least 32 µM; in experiment [11] it was at least 32 µM; in experiment [12], at least 32 µM. For the same molecule, the MIC in experiment [13] was at least 64 µM; in experiment [14], at least 64 µM; in experiment [5], 16 µM (≈ 47.6 µg/mL); in [15], 16 µM (≈ 47.6 µg/mL); in experiment [7], 32 µM (≈ 95.2 µg/mL); in experiment [16], at least 32 µM. The MIC in experiment [17] and in [18] was at least 32 µM in each case.
